Our source for the IC50 values is patent US11319283B2, “Substituted cyclobutylbenzene compounds as indoleamine 2,3-dioxygenase (IDO) inhibitors” (MERCK SHARP & DOHME CORP., priority 2017, dated 2022).

Common to all, as to format: cell-based
Assay [1] concerns the target T1, IDO1 (Homo sapiens, UniProt P14902). The assay is described as follows: IDO1 HEK293 Cellular Assay. Particulars: HEK293 cells transfected with Flag-IDO1 vector, 20-24 hours, fluorescence readout. The procedure:
IDO1 HEK293 Cellular Assay
Compounds to be tested were serially diluted in ten 3-fold steps in DMSO starting from 10 mM DMSO stocks. Compound dilutions or DMSO alone were then dispensed from the dilution plate into a Greiner black 384-well assay plate (catalog #781086) using an Echo 550 acoustic liquid handler (Labcyte).
HEK293 cell pellets were resuspended to 5×10^5 cells/mL in complete HEK293 culture media (89% DMEM, 10% FBS, 1% penicillin/streptomycin). Suspended cells (2 mL) were dispensed into each well of a 6-well Corning plate (Catalog #3516). Cells were allowed to attach and were incubated for 20 hours at 37° C. in a 5% CO2 incubator. Flag-IDO1 vector (Genscript True ORF Gold, 2 ug) in 150 uL of Opti-MEM medium was added to each well of a Corning 24 well plate (Cat #3527) and incubated for 5 minutes at room temperature. To each well of the 24-well plate was added […] Lipofectamine 2000 (Gibco) and the plate incubated at room temperature for 20-30 minutes. To each well of attached cells in the 6-well plate, […] of the transfection mix from the 24-well plate was gently added to each well and IDO1 protein was allowed to express for 24-30 hours at 37 degrees Celsius in a 5% CO2 incubator.
Media was removed from the cells which were then washed with 2 mL Dulbecco's phosphate-buffered saline (DPBS). After removal of DPBS, 0.5 mL of TrypLE (Gibco) was added and incubated at 5 minutes until cells lift from the surface of the wells. Complete HEK293 culture media (4 mL) was added to each well and cells were collected and pooled into a conical tube. Cells were pelleted at 200×g for 5 minutes and resuspended in an equal volume of complete DMEM medium. Cells were diluted to 4×10^5 cells per mL in complete HEK293 media. L-Tryptophan was added to give a final concentration of […]. The diluted transfected cells […] or nontransfected cells […] were dispensed into wells of Greiner black 384-well assay plates (catalog #781086) containing previously diluted compounds. The plate is briefly mixed and centrifuged at 200×g for 10 seconds to collect cells at the bottom of the plate. Plates were covered and incubated for 20-24 hours at 37 degrees C. in a 5% CO2 incubator. Afterwards […] of 0.5 M methyl isonipecotate in dimethyl sulfoxide was added to each well, mixed, sealed, and centrifuged at 500 rpm for 10 seconds. Plates were incubated at 37 degrees in a 5% CO2 incubator overnight to develop fluoresence. The plates are allowed to cool and then centrifuged for 1 minute at 1000×g. The resulting fluoresence was measured in an Envision plate reader (Perkin Elmer) with a 400/25 nm excitation filter and an 510/20 nm emission filter.
The fluoresence intensity of each well was corrected for the background observed in wells with untransfected cells and was expressed as a fraction of the intensity observed in wells of IDO1 transfected cells and DMSO only. Potencies were calculated by linear least squares fit to the four parameter logistic IC50 equation.

Assay [2] has as its target T2, TDO (Homo sapiens, UniProt P48775).
T2 construct: endogenous in cells; host or cells: SW48 cells (A2780 cells as control with minimal TDO activity)
Description: TDO Cellular Assay in Frozen SW48 Cells. Particulars: 300 uM L-tryptophan, about 48 hours, fluorescence readout. In a few lines:
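SW48 cells in RPMI with 300 uM L-tryptophan were incubated ~48 h at 37° C with compounds in ten 3-fold dilutions. Signal was corrected for A2780 background and normalised to DMSO-only SW48 wells, with IC50 from a four-parameter logistic fit.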

Assay [3] addresses T1, IDO1. The assay is described as follows: IDO1 Cellular Assay in Hela Cells Stimulated with IFNγ. The conditions noted are these: Hela cells stimulated with IFNγ 100 ng/mL, 300 uM L-tryptophan, about 48 hours, fluorescence readout. Details: endogenous in cells; host or cells: HeLa cells stimulated with IFNγ (100 ng/mL). In a few lines:
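HeLa cells with 300 uM L-tryptophan, IFNγ-stimulated (unstimulated cells as max-effect control), exposed to compound (ten 3-fold dilutions) for about 48 h at 37 °C. IC50 by four-parameter logistic fit.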

Assay [4] addresses T1, IDO1. The assay is described as follows: IDO1 Human Whole Blood Assay. Details: from tissue; host or cells: human whole blood from healthy donors, stimulated with LPS and IFNγ. The conditions noted are these: LPS and IFNγ 100 ng/mL, overnight (18 h), kynurenine by LC/MS/MS. The protocol: IDO1 Human Whole Blood Assay
Compounds to be tested were serially diluted in ten 3-fold steps in DMSO starting from 10 mM. […] LPS and IFNγ was prepared in RPMI to a 10× of final conc. (1000 ng/mL), final concentration is 100 ng/mL.
Human whole blood was drawn in sodium heparin coated tubes from healthy internal donors. […] of blood was transferred to each of the wells of a v-bottom 96 well plate. […] of compound was transferred from intermediate dilution plate, and incubated for 15 min. 30 μL from stimulants was then transferred to blood and mixed thoroughly. Plate was covered with breathable membrane and incubated at 37° C. for overnight (18 h).
On day 2 isotope labeled standard of kynurenine and tryptophan was made in water at 10× concentration and […] was added to the blood at […] final concentration. The assay plates were centrifuged at 300×G for 10 min with no brake to separate plasma from red blood cells. […] of plasma samples was removed without disturbing red blood cells. Plasma was diluted with RPMI in 1:1 ratio and proteins were precipitated out with two volume of Acetonitrile. The plates was centrifuged at 4000×G for 60 min. 20 mL of supernatant was carefully transferred to a 384 well plate contain 40 mL of 0.1% formic acid in water and analyzed by LC/MS/MS.
LC/MS/MS analyses were performed using Thermo Fisher's LX4-TSQ Quantum Ultra system. This system consists of four Agilent binary high-performance liquid chromatography (HPLC) pumps and a TSQ Quantum Ultra triple quadruple MS/MS instrument. For each sample, […] were injected onto an Atlantis T3 column (2.1 mm×150 mm, […]) from Waters. The mobile phase gradient pumped at 0.8 mL/min was used to elute the analytes from the column at 25° C. […] Mobile phase A consisted of 0.1% formic acid in water. Mobile phase B consisted of 0.1% of formic acid in acetonitrile. Data was acquired in positive mode using a HESI interface. The operational parameters for the TSQ Quantum Ultra instrument were a spray voltage of 4000 V, capillary temperature of 380° C., vaporizer temperature 400° C., shealth gas 60 arbitrary units, Aux gas 20 arbitrary units, tube lens 85 and collision gas 1.2 mTorr. […] The peak area was integrated by Xcalibur Quan software. The ratios between the kynurenine generated in the reaction and 2D6-Kynurenine spiked-in internal standard were used to generate percentage inhibition and IC50 values. Compounds were titrated and IC50's were calculated by 4 parameter sigmoidal curve fitting formula.

SMILES strings stand for the structures. Some results are limits rather than exact numbers.

T2 sequence (P48775 whole entry): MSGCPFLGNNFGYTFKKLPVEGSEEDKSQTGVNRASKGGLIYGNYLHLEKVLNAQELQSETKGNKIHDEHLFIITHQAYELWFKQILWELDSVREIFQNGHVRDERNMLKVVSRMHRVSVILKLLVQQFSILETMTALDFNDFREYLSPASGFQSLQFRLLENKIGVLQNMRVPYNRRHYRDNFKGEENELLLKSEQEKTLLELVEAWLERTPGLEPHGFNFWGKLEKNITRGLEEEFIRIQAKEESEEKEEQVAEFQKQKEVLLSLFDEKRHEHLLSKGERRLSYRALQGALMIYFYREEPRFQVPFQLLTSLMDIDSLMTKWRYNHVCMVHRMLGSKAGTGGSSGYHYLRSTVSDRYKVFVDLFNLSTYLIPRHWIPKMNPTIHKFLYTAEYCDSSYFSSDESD
T1 sequence (P14902 whole entry): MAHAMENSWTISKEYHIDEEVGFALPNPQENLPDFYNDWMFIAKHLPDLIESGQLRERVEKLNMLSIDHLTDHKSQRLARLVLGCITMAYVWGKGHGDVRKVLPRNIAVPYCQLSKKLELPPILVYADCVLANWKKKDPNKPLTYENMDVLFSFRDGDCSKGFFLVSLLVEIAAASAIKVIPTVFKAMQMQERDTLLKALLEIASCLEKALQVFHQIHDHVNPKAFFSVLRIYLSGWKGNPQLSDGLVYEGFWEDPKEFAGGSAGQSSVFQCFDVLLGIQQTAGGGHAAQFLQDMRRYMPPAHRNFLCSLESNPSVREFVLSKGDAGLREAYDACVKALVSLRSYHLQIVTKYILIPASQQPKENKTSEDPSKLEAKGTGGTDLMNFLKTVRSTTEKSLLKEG

In general, IC50 refers to the concentration needed to halve the response being measured. Low readings indicate inhibition by little substance, high ones a need for much substance. Regarding `O=C(Nc1ccc(C2(NC(=O)c3ncco3)CCC2)cc1)c1cccc(Cl)c1` [Example 12, N-(1-{4-[(3-chlorobenzene-1-carbonyl)amino]phenyl}cyclobutyl)-1,3-oxazole-2-carboxamide], the values for the IC50 in assay [1], in assay [2] and in assay [3] were 0.016 µM, 0.585 µM and 0.028 µM, respectively.
Regarding `O=C(Nc1ccc(C2(NC(=O)c3cscn3)CCC2)cc1)c1cccc(Cl)c1` [Example 14, N-(1-{4-[(3-chlorobenzene-1-carbonyl)amino]phenyl}cyclobutyl)-1,3-thiazole-4-carboxamide], the IC50 in assay [1] came to 0.023 µM; in assay [2], 1.21 µM; in assay [3], 0.039 µM.
On the same counts, the results for `O=C(Nc1ccc(C2(NC(=O)c3nccs3)CCC2)cc1)c1cccc(Cl)c1` [Example 15, N-(1-{4-[(3-chlorobenzene-1-carbonyl)amino]phenyl}cyclobutyl)-1,3-thiazole-2-carboxamide] are 0.014 µM, 2.51 µM and 0.053 µM.
Turning to `O=C(Nc1ccc(C2(NC(=O)c3ccc(Cl)cc3)CCC2)cc1)c1cncnc1` [Example 17, N-(4-{1-[(4-chlorobenzene-1-carbonyl)amino]cyclobutyl}phenyl)pyrimidine-5-carboxamide], the half-inhibitory concentration (IC50) in assay [1] was 0.125 µM; in assay [2], not below 10 µM; in assay [3] it was 0.108 µM.
As for `O=C(Nc1ccc(C2(NC(=O)c3cncnc3)CCC2)cc1)c1cccc(Cl)c1` [Example 18, N-(1-{4-[(3-chlorobenzene-1-carbonyl)amino]phenyl}cyclobutyl)pyrimidine-5-carboxamide], the concentration for half-maximal inhibition (IC50) is 0.092 µM in assay [1], not below 10 µM in assay [2] and 0.092 µM in assay [3].
For the compound `O=C(Nc1ccc(C2(C(=O)Nc3ccc(F)cc3)CC(F)(F)C2)cc1)c1cccc(Cl)c1` [Example 63, 3-chloro-N-(4-(3,3-difluoro-1-((4-fluorophenyl)carbamoyl)cyclobutyl)phenyl)benzamide], the results for the IC50 in assay [2], in assay [3] and in assay [4] were not below 10 µM, 0.002 µM and 0.07 µM, respectively.
The corresponding values for `O=C(Nc1ccc(C2(C(=O)Nc3ccc(F)cn3)CCC2)cc1CO)c1cccc(Cl)c1` [Example 85, 3-chloro-N-[4-{1-[(5-fluoropyridin-2-yl)carbamoyl]cyclobutyl}-2-(hydroxymethyl)phenyl] benzamide] are not below 10 µM, 0.005 µM and 0.219 µM.
The corresponding values for `N#Cc1cccc(C(=O)Nc2ccc(C3(C(=O)Nc4ccc(Cl)nc4)CCC3)cc2)c1` [Example 88, N-(4-{1-[(6-chloropyridin-3-yl)carbamoyl]cyclobutyl}phenyl)-3-cyanobenzamide] are not below 10 µM, 0.002 µM and 0.057 µM.
